In patent US8470765B2, “Polypeptides and antibacterial or antiseptic use of same” (AnGes MG, Inc., priority 2009, dated 2013):
≈ marks a conversion by molar mass, not a printed value. No end group written: not given here.

Assays:
[1] = system: Escherichia coli ATCC 25922; experiment: ATP Assay (viability at 3 hours), Table 6; format: cell-based; conditions: 3 h, 5 μg/mL
Experimental: (§1) Bacteria (Escherichia coli ATCC 25922, Pseudomonas aeruginosa ATCC 27853, Staphylococcus aureus ATCC29213, and Staphylococcus epidermidis JCM 2414) were inoculated to Mueller-Hinton broth: MHB or LB medium, and cultured at a temperature and period suited for each strain. From the thus obtained colonies, each strain was inoculated to a fresh liquid medium and cultured for 16 to 20 hours. Then an aliquot having a volume (10 to 50 μL) appropriate to each strain was inoculated to a fresh liquid medium and cultured for 4 to 6 hours, followed by the measurement of the absorbance at 600 nm. After comparing the turbidity with McFarland #0.5, the resultant was diluted with a medium. Each strain was added to about 10^5 CFU/mL (final concentration).
(§2) Each of the peptide solutions to be tested was diluted with the medium to obtain a solution of 10 μg/mL. As positive controls, tobramycin (TOB), oxacillin (OX) and meropenem (MEPM) were used. By dilution with sterilized purified water to 1.0 mg/mL, positive control-containing media having concentrations of […], respectively for TOB; 0.5, 0.12 and 0.06 μg/mL, respectively, for OX; and 1.0, 0.25, 0.12, 0.06, 0.03 and 0.008 μg/mL respectively, for MEPM, were prepared. To a 96-well microtiter plate, 0.1 mL of the inoculation solution and 0.1 mL of the peptide- or positive control-containing medium having the respective concentration were added, and cultured at 37° C. for 3 hours. The well not containing the sample was used as a negative control. After the culturing, ATP was measured using BacTiter-Glo Microbial Cell Viability Assay kit of PROMEGA, and compared with that in the negative control to obtain a relative value which was defined as a viability. The antibacterial activity was evaluated based on the viability at 3 hours later using ATP as an index.
(§3) The medium used in this test for bacteria was Mueller-Hinton broth. Independent experiments were carried out twice for each strain.

[2] = system: Staphylococcus aureus ATCC29213; experiment: ATP Assay (viability at 3 hours), Table 6; format: cell-based; conditions: 3 h, 5 μg/mL
Experimental: as §1, §2, §3

[3] = system: Pseudomonas aeruginosa ATCC 27853; experiment: ATP Assay (viability at 3 hours), Table 6; format: cell-based; conditions: 3 h, 5 μg/mL
Experimental: as §1, §2, §3

[4] = system: Staphylococcus epidermidis JCM 2414; experiment: microbe, parasite or virus in culture; format: cell-based; conditions: Table 5; unit not given
Experimental: (§4) Bacteria (Escherichia coli ATCC 25922, Pseudomonas aeruginosa ATCC 27853, Staphylococcus aureus ATCC29213, Klebsiella pneumoniae JCM 1662, Enterobacter cloacae JCM 1232, Enterobacter aerogenes JCM 1235 and Staphylococcus epidermidis JCM 2414) were inoculated to Mueller-Hinton broth: MHB or LB medium, and cultured at a temperature and period suited for each strain. From the thus obtained colonies, each strain was inoculated to a fresh liquid medium and cultured for 16 to 20 hours. Then an aliquot having a volume (10 to 50 appropriate to each strain was inoculated to a fresh liquid medium and cultured for 4 to 6 hours, followed by the measurement of the absorbance at 600 nm. After comparing the turbidity with McFarland #0.5, the resultant was diluted with a medium. Each strain was added to about 10^5 CFU/mL (final concentration). Each of the peptide solutions to be tested was diluted with MHB to obtain a solution of 128 μg/mL. […] As controls, tobramycin (TOB: aminoglucoside antibiotic), oxacillin (OX:β-lactam antibiotic), meropenem (MEPM: carbapenem antibiotic) and ciprofloxacin (new quinolone antibiotic) were used. […] To a 96-well microtiter plate, 0.1 mL of the inoculation solution and 0.1 mL of the peptide- or positive control-containing medium having the respective concentration were added, and cultured at 37° C. for 16 to 24 hours (or a time period suited for the growth of the respective strain). The well not containing the sample was used as a negative control. After the culturing, the growth was visually observed, and the minimum concentration at which the growth was inhibited was defined as the minimum growth inhibition concentration (MIC). The medium used in this test for bacteria was Mueller-Hinton broth. Independent experiments were carried out twice or more for each strain.

[5] = system: Escherichia coli ATCC 25922; experiment: microbe, parasite or virus in culture; format: cell-based; conditions: Table 5; unit not given
Experimental: as §4

[6] = system: Staphylococcus aureus ATCC29213; experiment: microbe, parasite or virus in culture; format: cell-based; conditions: Table 5; unit not given
Experimental: as §4

[7] = system: Pseudomonas aeruginosa ATCC 27853; experiment: microbe, parasite or virus in culture; format: cell-based; conditions: Table 5; unit not given
Experimental: as §4

[8] = system: Alternaria alternata JCM5800; conditions: Table 4; two tests, first/second value where not identical
[9] = system: Trichophyton rubrum NBRC9185; conditions: Table 4; two tests, first/second value where not identical
[10] = system: Candida krusei NBRC1395; conditions: Table 4; two tests, first/second value where not identical
[11] = system: Fusarium solani JCM11383; conditions: Table 4; two tests, first/second value where not identical
[12] = system: Trichophyton mentagrophytes NBRC6124; conditions: Table 4; two tests, first/second value where not identical

Compound | Escherichia coli ATP (viability, relative value to negative control) [1] | Staphylococcus aureus ATP (viability, relative value to negative control) [2] | Pseudomonas aeruginosa ATP (viability, relative value to negative control) [3] | MIC Staphylococcus epidermidis [4] | MIC Escherichia coli [5] | MIC Staphylococcus aureus [6] | MIC Pseudomonas aeruginosa [7] | MIC Alternaria alternata [8] [µg/mL] | MIC Trichophyton rubrum [9] [µg/mL] | MIC Candida krusei [10] [µg/mL] | MIC Fusarium solani [11] [µg/mL] | MIC Trichophyton mentagrophytes [12] [µg/mL]
GERLKRKIQKWIRW-NH2 [SRP-26] | 9.0 | 12.9 | 6.2 | 16-32 | 16-32 | 16 | 16 | – | – | – | – | –
RLKRLGERLKRKIQKL-NH2 [SRP-36] | 6.4 | 3.6 | 2.0 | 8 | 16-32 | 16-32 | 8-16 | – | – | – | – | –
Ac-RLKRLGERLKRKIQKLIRL-NH2 [SRP-33] | 2.9 | 1.6 | 2.8 | 8-16 | 8-16 | 16 | 8-16 | – | – | – | – | –
RLKRLGERLKRKIQKLIRL-NH2 [SRP-28] | 7.1 | 5.2 | 1.4 | 8-16 | 16 | 16 | 4-8 | – | – | – | – | –
MGERLKRKIQKWIRW-NH2 [SRP-25] | 23.5 | 10.9 | 15.4 | 8-32 | 16 | 16 | 16 | – | – | – | – | –
LKRLGERLKRKIQKLIRL-NH2 [SRP-29] | 9.0 | 1.9 | 1.8 | 8 | 16-32 | 16-32 | 8 | – | – | – | – | –
GRLKRIGERLKRKIQKWIRW-NH2 [SRP-24] | 8.2 | 2.7 | 1.3 | 8-32 | 16 | 16 | 8-16 | – | – | – | – | –
GRLKRLGERLKRKIQKWIRW-NH2 [SRP-22] | 4.5 | 5.0 | 1.4 | 8 | 8-16 | 8-16 | 8-16 | – | – | – | – | –
KRLGERLKRKIQKLIRL-NH2 [SRP-30] | 19.9 | 6.3 | 2.0 | 8-16 | 64 | 16-64 | 8-16 | – | – | – | – | –
GRLKRLGKRLKRKIQKLARL-NH2 [SRP-32] | 7.0 | 5.2 | 1.6 | 4-8 | 16 | 16 | 8-16 | – | – | – | – | –
GRLKRVGERLKRKIQKWIRW-NH2 [SRP-23] | 2.8 | 3.0 | 1.5 | 8-16 | 16 | 8-16 | 8-16 | – | – | – | – | –
GRLKRLGERLKRKIQKLIRL-NH2 [SRP-27] | 5.6 | 3.2 | 2.1 | 8-16 | 16 | 16 | 8-16 | – | – | – | – | –
RLGERLKRKIQKLIRL-NH2 [SRP-31] | 27.4 | 19.7 | 9.7 | 8-16 | 32-64 | 32-64 | 16 | – | – | – | – | –
RLKRLGERLKRKIQKLI-NH2 [SRP-35] | 3.6 | 2.1 | 5.2 | 8 | 8-16 | 16-32 | 8-16 | – | – | – | – | –
RLKRLGERLKRKIQKLIR-NH2 [SRP-34] | 4.4 | 2.6 | 2.8 | 8-16 | 8-16 | 16-32 | 8-16 | – | – | – | – | –
C[C@@H]1[C@H](O)[C@@H](C)/C=C/C=C/C=C/C=C/C=C/C=C/C=C/[C@H](O[C@@H]2O[C@H](C)[C@@H](O)[C@H](N)[C@@H]2O)C[C@@H]2O[C@](O)(C[C@@H](O)C[C@@H](O)[C@H](O)CC[C@@H](O)C[C@@H](O)CC(=O)O[C@H]1C)C[C@H](O)[C@H]2C(=O)O [amphotericin B, reference compound] | – | – | – | – | – | – | – | 1000 (≈ 1080 µM) | 250 (≈ 271 µM) | 2000 (≈ 2160 µM) | 1000 (≈ 1080 µM) | 125 (≈ 135 µM)
